From patent US10189809B2, “SGC stimulators” (Ironwood Pharmaceuticals, Inc., priority 2010, dated 2019)
Like-named read-outs stand apart in the source and are kept apart here.

Key:
Thoracic aortic rings = test: Alternative thoracic aortic rings assay (Example 19b; resting tension as 100% inhibition); design: species or system rat; conditions: Rattus norvegicus; for inhibition at 1 µM: read-out: Percent Relaxation at 1 μM; for inhibition at 3 µM: read-out: Percent Relaxation at 3 μM; for EC50: read-out: Aortic Ring EC50; for inhibition at 10 µM: read-out: Percent Relaxation at 10 μM
Protocol: Thoracic aortic rings were dissected from anesthetized (isoflurane) male Sprague-Dawley rats weighing 275-299 g. Tissues were immediately transferred to ice-cold Krebs-Henseleit solution, which had been aerated with 95% O2 and 5% CO2 for 30 minutes. Following removal of connective tissue, aortic sections were cut into 4 rings (˜2 mm each) and suspended on 2 L-shaped hooks, with one hook fixed at the bottom of the tissue bath (Schuler Organ Bath, Harvard Apparatus) and the other connected to a force transducer (F30 Force Transducer, Harvard Apparatus). Baths contained Krebs Henseleit solution (10 mL) heated to 37° C. and aerated with 95% O2 and 5% CO2. Rings were brought to an initial tension of 0.3-0.5 g and gradually raised to a resting tension of 1.0 g over 60 minutes. Rings were rinsed with Krebs Henseleit solution (heated to 37° C. and aerated with 95% O2 and 5% CO2) at 15 minute intervals until a stable baseline was obtained. Rings were considered to be stable after a resting tension of 1.0 g was maintained (for approximately 10 minutes) without need for adjustment. Rings were then contracted with 100 ng/mL phenylephrine by adding 100 uL of a 10 μg/mL phenylephrine stock solution. Tissues achieving a stable contraction were then treated in a cumulative, dose dependent manner with test compounds prepared in dimethylsulfoxide (DMSO). In some cases, tissues were rinsed three times over a 5 minute period with Krebs-Heinseleit's solution (heated to 37° C. and aerated with 95% O2 and 5% CO2), allowed to stabilize at baseline, and then used for characterization of other test articles or DMSO effects. All data were collected using the HSE-ACAD software provided by Harvard Apparatus. […] EC50 values were calculated from concentration-response curves generated with GraphPad Prism Software.

[1] = molecular target: soluble guanylate cyclase (sGC) (Homo sapiens (Human), UniProt Q02108+Q02153); test: sGC-HEK-cGMP assay run with SNP incubation (HEK WC assay); type: cell-based; conditions: for EC50: in the presence of 10 uM SNP
Protocol: Human embryonic kidney cells (HEK293), endogenously expressing soluble guanylate cyclase (sGC), were used to evaluate the activity of test compounds. Compounds stimulating the sGC receptor should cause an increase in the intracellular concentration of cGMP. HEK 293 cells were seeded in Dulbecco's Modification of Eagle's Medium supplemented with fetal bovine serum (10% final) and L-glutamine (2 mM final) in a 200 μL volume at a density of 1×10^5 cells/well in a poly-D-lysine coated 96 well flat bottom plate and grown overnight at 37° C. Medium was aspirated and cells were washed with 1× Hank's Buffered Saline Salt Solution (200 μL). Cells were then incubated for 15 minutes at 37° C. with 0.5 mM 3-isobutyl-1-methylxanthine (200 μL). Test article and sodium nitroprusside were then added to the assay mixture (2 μL each) and incubated at 37° C. for 10 minutes. After the 10 minute incubation, the assay mixture was aspirated and 0.1M HCl (200 μL) was added to the cells. The plate was incubated at 4° C. for 30 minutes in the 0.1M HCl to stop the reaction and lysed the cells. The plates were then centrifuged at 1,200 g for 5 minutes at room temperature. Supernatants were collected and transferred to a new flat bottom 96 well plate for analysis. Vehicle controls were carried out using DMSO (1%). […] Samples were diluted with an equal volume of 1 M Ammonium Acetate (pH 7) to neutralize samples for better chromatography. […] EC50 values were calculated from concentration-response curves generated with GraphPad Prism Software.

[2] = molecular target: Human soluble guanylate cyclase enzyme (hsGC) (Homo sapiens (Human), UniProt Q02108+Q02153); test: Purified human sGC enzyme activity assay; type: biochemical; conditions: for sGC Enzyme (specific activity at 10 μM) / sGC Enzyme (fold increase at 10 μM without SNP) / sGC Enzyme (fold increase at 10 μM): 10 μM compound; for sGC Enzyme (specific activity at 30 μM) / sGC Enzyme (fold increase at 30 μM without SNP) / sGC Enzyme (fold increase at 30 μM): 30 μM compound; for sGC Enzyme (fold increase at 10 μM) / sGC Enzyme (fold increase at 30 μM): without the addition of SNP
Protocol: Human soluble guanylate cyclase enzyme (hsGC) obtained from Enzo Inc. (P/N: ALX-201-177) was used to evaluate the activity of test compounds. The assay reactions contained 0.1 M Tris (pH 8.0), 0.5 mg/mL BSA (pH 8.0), 2 mM DTT, 2 mM MgCl2, 300 μM GTP, 1 mM 3-isobutyl-1-methylxanthine (IBMX) and 5 ng human soluble guanylate cyclase enzyme. Test compounds in DMSO were then added (2 μL, 10 or 30 μM final concentration) and incubated (200 μL, 96-well plate format) at 37° C. for 30 minutes. The controls were carried out using 2 μL DMSO. After the 30 minute incubation, the reaction was stopped with the addition of 200 μL of cold methanol. The plate was then centrifuged at 3,200 rpm for 10 minutes at room temperature. Supernatants (200 μL) were collected and transferred to a new 96 well plate for analysis.
An 8 point cGMP (Sigma-Aldrich P/N: G6129) standard curve was prepared in assay buffer ranging from 0.156-20 μM. Samples for the cGMP standard curve were then diluted with an equal volume of methanol resulting in final cGMP concentrations of 0.078-10 μM.
The cGMP standard curve was generated using GraphPad Prism Software.
Calculations: Specific Activity was determined by the amount of cGMP formed (nmoles) per mg of sGC per min. Enzyme “fold-change” was calculated by dividing Specific Activity for test compounds by Specific Activity of DMSO controls.

[3] = read-out: HEK WC Assay (% Emax at 10 μM/with 10 uM SNP)
[4] = read-out: HEK WC Assay (% Emax at 30 μM/with 10 uM SNP)
[5] = read-out: HEK WC Assay (% Emax at 1 μM with 10 uM SNP)
[6] = read-out: HEK WC Assay (% Emax at 10 μM with 10 uM SNP)
[7] = read-out: HEK WC Assay (% Emax at 30 μM with 10 uM SNP)
[8] = read-out: HEK WC Assay (% Emax at 10 uM/with 10 uM SNP)
[9] = read-out: HEK WC Assay (% Emax at 30 uM/with 10 uM SNP)

Sequence of Human soluble guanylate cyclase enzyme (hsGC) (Q02153 whole entry): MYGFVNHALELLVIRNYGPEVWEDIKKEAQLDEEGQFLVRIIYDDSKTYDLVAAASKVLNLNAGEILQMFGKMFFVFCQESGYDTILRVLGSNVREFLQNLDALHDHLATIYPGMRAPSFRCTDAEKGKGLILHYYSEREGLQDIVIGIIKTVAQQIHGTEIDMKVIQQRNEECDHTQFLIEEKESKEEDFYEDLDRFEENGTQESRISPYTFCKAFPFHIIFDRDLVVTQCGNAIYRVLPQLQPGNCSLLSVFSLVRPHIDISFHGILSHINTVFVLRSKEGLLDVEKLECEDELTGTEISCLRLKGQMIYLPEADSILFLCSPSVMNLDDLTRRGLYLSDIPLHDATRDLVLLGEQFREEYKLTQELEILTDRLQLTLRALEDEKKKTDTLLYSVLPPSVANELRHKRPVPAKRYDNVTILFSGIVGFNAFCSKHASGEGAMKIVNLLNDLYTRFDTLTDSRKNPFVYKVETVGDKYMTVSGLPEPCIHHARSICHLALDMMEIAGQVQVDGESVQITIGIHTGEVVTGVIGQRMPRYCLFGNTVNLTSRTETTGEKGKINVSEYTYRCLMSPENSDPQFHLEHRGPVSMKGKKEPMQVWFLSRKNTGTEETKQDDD
Sequence of Human soluble guanylate cyclase enzyme (hsGC) (Q02108 whole entry): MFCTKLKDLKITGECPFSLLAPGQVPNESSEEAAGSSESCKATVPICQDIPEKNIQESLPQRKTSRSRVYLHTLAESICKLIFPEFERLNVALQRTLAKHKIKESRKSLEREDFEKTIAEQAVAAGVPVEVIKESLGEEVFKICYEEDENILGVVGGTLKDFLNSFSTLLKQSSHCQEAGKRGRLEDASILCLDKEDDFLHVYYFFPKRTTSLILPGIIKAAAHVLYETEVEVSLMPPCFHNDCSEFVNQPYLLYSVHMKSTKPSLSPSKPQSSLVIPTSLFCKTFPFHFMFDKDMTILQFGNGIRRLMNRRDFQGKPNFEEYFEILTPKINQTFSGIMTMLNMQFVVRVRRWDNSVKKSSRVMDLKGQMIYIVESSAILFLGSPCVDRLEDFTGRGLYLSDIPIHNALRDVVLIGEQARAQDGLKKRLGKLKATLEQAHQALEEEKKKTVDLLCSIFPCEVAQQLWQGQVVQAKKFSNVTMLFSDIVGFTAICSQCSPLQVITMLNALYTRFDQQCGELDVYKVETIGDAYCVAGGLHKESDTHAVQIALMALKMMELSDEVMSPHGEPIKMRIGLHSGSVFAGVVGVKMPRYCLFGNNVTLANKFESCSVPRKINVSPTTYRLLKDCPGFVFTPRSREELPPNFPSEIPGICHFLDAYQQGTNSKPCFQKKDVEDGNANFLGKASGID
Sequence of soluble guanylate cyclase (sGC) (Q02153 whole entry): as the sequence (Q02153 whole entry) above
Sequence of soluble guanylate cyclase (sGC) (Q02108 whole entry): as the sequence (Q02108 whole entry) above

| EC50 (Thoracic aortic rings; Table 10B) | Emax at 10 µM [1, 8] | Emax at 30 µM [1, 9] | sGC Enzyme (specific activity at 10 μM) [2] | sGC Enzyme (fold increase at 10 μM without SNP) [2] | sGC Enzyme (specific activity at 30 μM) [2] | sGC Enzyme (fold increase at 30 μM without SNP) [2] | Compound | inhibition at 1 µM (Thoracic aortic rings; Table 10B) | inhibition at 3 µM (Thoracic aortic rings; Table 10B) | other results |
| --- | --- | --- | --- | --- | --- | --- | --- | --- | --- | --- |
| – | – | – | – | – | – | – | CCOC(=O)c1cnc(-c2cc(-c3ccon3)n(Cc3ccccc3F)n2)nc1O [Compound I-138] | – | – | inhibition at 1 µM (Thoracic aortic rings; Table 10A): 20 to 40%; inhibition at 3 µM (Thoracic aortic rings; Table 10A): 40 to 60%; EC50 (Thoracic aortic rings; Table 10A): 2000 to 4000 nM; Emax at 10 µM [1, 3]: 40 to 60%; Emax at 30 µM [1, 4]: 40 to 60% |
| < 2000 nM | – | – | – | – | – | – | Nc1nc(-c2cc(-c3ccon3)n(Cc3ccccc3F)n2)ncc1NC(=O)c1nccs1 [Compound I-189] | 80 to 100% | 80 to 100% | EC50 [1]: < 20000 nM; Emax [1, 5]: 60 to 80%; Emax [1, 6]: 60 to 80%; Emax [1, 7]: 60 to 80% |
| < 2000 nM | – | – | – | – | – | – | Cc1cnc(-c2cc(-c3ccon3)n(Cc3ccccc3F)n2)nc1N [Compound I-297] | 20 to 40% | 60 to 80% | EC50 [1]: < 20000 nM; Emax [1, 6]: 40 to 60%; Emax [1, 7]: 80 to 100% |
| – | 0 to 10% | 0 to 10% | C (C = 100 to <200) | A (A = no increase to <2 fold increase) | C (C = 100 to <200) | A (A = no increase to <2 fold increase) | Cc1cc(-c2cc(-c3ncccn3)nn2Cc2ccccc2F)c(C)s1 [Compound I-14] | – | – | – |
| – | – | – | – | – | – | – | Nc1nc(-c2cc(-c3ccon3)n(Cc3ccccc3F)n2)ncc1F [Compound I-109] | – | – | inhibition at 1 µM (Thoracic aortic rings; Table 10A): 80 to 100%; inhibition at 3 µM (Thoracic aortic rings; Table 10A): 60 to 80%; inhibition at 10 µM (Thoracic aortic rings; Table 10A): 100 to 120%; EC50 (Thoracic aortic rings; Table 10A): < 2000 nM |
| < 2000 nM | – | – | – | – | – | – | Fc1ccccc1Cn1nc(-c2ncccn2)cc1-c1ccno1 [Compound I-305] | 40 to 60% | 80 to 100% | inhibition at 10 µM (Thoracic aortic rings; Table 10B): 100 to 120% |
| – | – | – | – | – | – | – | CCOC(=O)c1cnc(-c2cc(-c3ccon3)n(Cc3ccccc3F)n2)nc1Cl [Compound I-140] | – | – | inhibition at 1 µM (Thoracic aortic rings; Table 10A): 20 to 40%; inhibition at 3 µM (Thoracic aortic rings; Table 10A): 60 to 80%; inhibition at 10 µM (Thoracic aortic rings; Table 10A): 80 to 100%; EC50 (Thoracic aortic rings; Table 10A): < 2000 nM; Emax at 10 µM [1, 3]: 60 to 80%; Emax at 30 µM [1, 4]: 40 to 60% |
| – | 0 to 10% | 0 to 10% | – | A (A = no increase to <2 fold increase) | – | A (A = no increase to <2 fold increase) | Fc1ccccc1Cn1nc(-c2ncccn2)cc1-c1cc2ccccc2o1 [Compound I-68] | – | – | – |
| < 2000 nM | – | – | – | – | – | – | Oc1nc(-c2cc(-c3ccon3)n(Cc3ccccc3F)n2)ncc1F [Compound I-161] | 80 to 100% | 100 to 120% | – |
| – | 0 to 10% | 0 to 10% | C (C = 100 to <200) | A (A = no increase to <2 fold increase) | C (C = 100 to <200) | B (B = 2 to <5 fold increase) | Fc1cccc(-c2cc(-c3ccccn3)nn2Cc2ccccc2F)c1 [Compound I-9] | – | – | – |
| – | 0 to 10% | 0 to 10% | C (C = 100 to <200) | A (A = no increase to <2 fold increase) | C (C = 100 to <200) | A (A = no increase to <2 fold increase) | Fc1ccc(-c2cc(-c3ccccn3)nn2Cc2ccccc2F)cc1 [Compound I-12] | – | – | – |
| – | – | – | – | – | – | – | COc1cccc(-c2cc(-c3ccccn3)n(Cc3ccccc3F)n2)n1 [Compound I-78] | – | – | sGC Enzyme (fold increase at 10 μM) [2]: A (A = no increase to <2 fold increase); sGC Enzyme (fold increase at 30 μM) [2]: A (A = no increase to <2 fold increase) |
| – | 0 to 10% | 0 to 10% | B (B = 50 to <100) | A (A = no increase to <2 fold increase) | B (B = 50 to <100) | A (A = no increase to <2 fold increase) | CS(=O)(=O)c1ccc(-c2cc(-c3ccccn3)n(Cc3ccccc3F)n2)nc1 [Compound I-50, 2-(1-(2-fluorobenzyl)-5-(pyridin-2-yl)-1H-pyrazol-3-yl)-5-(methylsulfonyl)pyridine] | – | – | – |
| – | 0 to 10% | 0 to 10% | C (C = 100 to <200) | A (A = no increase to <2 fold increase) | D (D = 200 to <500) | B (B = 2 to <5 fold increase) | Cc1cc(-c2cc(-c3ccccn3)nn2Cc2ccccc2F)c(C)s1 [Compound I-8] | – | – | – |
| – | – | – | B (B = 50 to <100) | A (A = no increase to <2 fold increase) | B (B = 50 to <100) | A (A = no increase to <2 fold increase) | N#Cc1cccc(-c2cc(-c3ccccn3)nn2Cc2ccccc2F)c1 [Compound I-16] | – | – | – |
| < 2000 nM | – | – | – | – | – | – | Nc1nc(-c2cc(-c3ccon3)n(Cc3ccccc3F)n2)ncc1NC(=O)C1CC1 [Compound I-144] | 80 to 100% | 100 to 120% | EC50 [1]: < 20000 nM; Emax [1, 6]: 100 to 120%; Emax [1, 7]: 60 to 80% |
| < 2000 nM | – | – | – | – | – | – | CC1(C(=O)Nc2cnc(-c3cc(-c4ccon4)n(Cc4ccccc4F)n3)nc2N)CC1(F)F (stereo not drawn) [Compound I-245] | 80 to 100% | 100 to 120% | inhibition at 10 µM (Thoracic aortic rings; Table 10B): 100 to 120%; EC50 [1]: < 20000 nM; Emax [1, 5]: 80 to 100%; Emax [1, 6]: 100 to 120%; Emax [1, 7]: 100 to 120% |
| – | – | – | – | – | – | – | Fc1ccccc1Cn1nc(-c2ccccn2)cc1-c1ncccn1 [Compound I-80] | – | – | Emax at 10 µM [1, 3]: 0 to 10%; Emax at 30 µM [1, 4]: 0 to 10%; sGC Enzyme (fold increase at 10 μM) [2]: A (A = no increase to <2 fold increase); sGC Enzyme (fold increase at 30 μM) [2]: A (A = no increase to <2 fold increase) |
